Results taken from patent US9702869B2, “Assays, antibodies, immunogens and compositions related to 5-FU” (WELLSTAT DIAGNOSTICS, LLC, priority 2011, dated 2017).

Assays:
monoclonal antibody 61C6 = experiment: Cross-reactivity evaluation with lyophilized reagents (Bi-mAb-Beads capture, TAG Plus 1-5C-5-FU-BSA detector); type: binding, Balb/c mouse
Procedure: This experiment was performed to test the specificity of the monoclonal antibody 61C6 against 5-FU analogues, pro-drugs and interference reagents. […] In this Example, the components of 5-FU assay (capture, detector) were lyophilized and the sample (calibrator, controls, and spiked plasma samples) were added directly to the lyophilized reagent pellets.
The assay was prepared using the following protocol. […] The capture and the detector solutions were aliquoted (20 μL) and lyophilized.
The assay procedure was as follows. The electrostatic on the surface of the microplate was reduced by using a Zerostat Antistatic Device prior to use. The device was pointed on the surface of the microplate, squeezed and the trigger released a few times across the microplate. 1 lyophilized pellet of each capture and detector reagent was transferred into plate wells using the Vacuum Pick-Up System. A hollow needle tip was attached onto the pick-up pen, and the finger controlled vacuum was used for picking up (the index finger was placed over the hole so that vacuum was drawn through the needle) or releasing pellet (lifting the index finger off of the hole). On a metal plate holder of a Digital Heat Block set at 37±2° C., 50 μL of each calibrator, control, and sample (in this case cross-reactivity panels) were added in duplicate directly into plate wells containing 2 lyophilized pellets. The plate was placed on the Micromix shaker set at Form 8 & Amp 6 for 30 seconds to mix. The plate was then placed in the metal plate holder of a Digital Heat Block set at 37±2° C. The plate was covered with a plate cover and incubated for 5±0.5 minutes.

mAb 61C6 = experiment: Competitive ECL cross-reactivity test in human plasma with and without 5-FU; conditions: for Cross-Reactivity (%): human plasma, chemicals 10 μg/mL, chemotherapy drugs 100 μg/mL; for cross-reactivity: with and without 5-FU, Table 5
[1] = system: anti-5-FU 61C6 monoclonal antibody; experiment: Assay timing evaluation of competitive 5-FU ECL immunoassay; type: binding, Balb/c mouse; conditions: 25 ng/mL of 5-FU in charcoal stripped plasma
antibody 61C6 = experiment: 5-FU ECL assay with antibody 61C6, summary of cross-reactivity; type: binding, Balb/c mouse; conditions: 5-FU assay with antibody 61C6
Procedure: The capture reagent 1-5C-5-FU-M270 beads appeared to be stable at 2-8° C. for at least 40 hours. […] The functional sensitivity was determined to be approximately 10 ng/mL (which is an estimate of functional sensitivity based on the calibrator curve).

[2] = Without 5-FU, lyophilized reagents, human plasma

| Molecule | % Cross-React (monoclonal antibody 61C6; With 75 ng/mL Spiked 5-FU) [%] | % Cross-React (monoclonal antibody 61C6; With 1000 ng/mL Spiked 5-FU) [%] | % Cross-React (monoclonal antibody 61C6; [2]) [%] | Cross-Reactivity (%) (mAb 61C6; With 5-FU (379 ng/mL)) | Cross-Reactivity (%) (mAb 61C6; Without 5-FU) | cross-reactivity (mAb 61C6) | ECL signal compared to CAL1 ([1]; 5 minutes incubation at 37° C.) [%] | ECL signal compared to CAL1 ([1]; other incubation timing (10, 15 minutes)) [%] | cross-reactivity (antibody 61C6) |
| --- | --- | --- | --- | --- | --- | --- | --- | --- | --- |
| Nc1nc(=O)c2c([nH]1)NCC(CNc1ccc(C(=O)N[C@@H](CCC(=O)O)C(=O)O)cc1)N2C=O (mixture of isomers) [Folinic Acid] | 0.1 | 0.0 | 0.0 | −0.01 | 0.000 | essentially undetectable | – | – | – |
| O=c1[nH]cc(F)c(=O)[nH]1 [5-FU, 5-Fluorouracil] | – | – | – | – | – | – | 61 | 78 | – |
| CCCCCOC(=O)Nc1nc(=O)n([C@@H]2O[C@H](C)[C@@H](O)[C@H]2O)cc1F [Capecitabine] | 0.7 | 0.6 | 0.0 | −0.13 | 0.00 | – | – | – | – |
| N.N.[Cl][Pt][Cl] [Cisplatin] | – | 0.1 | – | −0.04 | 0.001 | essentially undetectable | – | – | – |
| O=C1NCC(F)C(=O)N1 (centres unmarked) [DH5FU, 5-Fluorodihydropyrimidine-2,4-dione] | – | 1.0 | – | 1.74 | 2.62 | – | – | – | – |
| CCc1c2c(nc3ccc(OC(=O)N4CCC(N5CCCCC5)CC4)cc13)-c1cc3c(c(=O)n1C2)COC(=O)[C@]3(O)CC [Irinotecan] | 0.1 | 0.3 | – | – | – | essentially undetectable | – | – | – |
| CN(Cc1cnc2nc(N)nc(N)c2n1)c1ccc(C(=O)N[C@@H](CCC(=O)O)C(=O)O)cc1 [Methotrexate] | 0.0 | 0.1 | 0.0 | −0.02 | 0.000 | essentially undetectable | – | – | – |
| O=C1[O][Pt]2([NH][C@@H]3CCCC[C@H]3[NH]2)[O]C1=O [Oxaliplatin] | – | 0.0 | – | 0.01 | 0.000 | essentially undetectable | – | – | – |
| O=c1[nH]c(=O)n(C2CCCO2)cc1F (centres unmarked) [Tegafur] | 56 | 45 | 42 | 15.5 | 16.2 | – | – | – | less than 12% |
| Cc1cn([C@H]2C[C@H](O)[C@@H](CO)O2)c(=O)[nH]c1=O [Thymidine] | 1.0 | 1.3 | 0.2 | 0.13 | 0.05 | – | – | – | – |
| Cc1c[nH]c(=O)[nH]c1=O [Thymine] | 2.5 | 2.2 | 1.0 | 0.80 | 0.59 | – | – | – | – |
| O=c1cc[nH]c(=O)[nH]1 [Uracil] | 3.4 | 2.6 | 1.9 | 0.11 | 0.94 | – | – | – | – |
| O=c1ccn([C@@H]2O[C@H](CO)[C@@H](O)[C@H]2O)c(=O)[nH]1 [Uridine] | 1.6 | 0.9 | 0.5 | 0.16 | 0.21 | – | – | – | – |
| Hemoglobin | 0.0 | −0.1 | 0.0 | – | – | – | – | – | – |
